Measured values taken from ChEMBL document CHEMBL4402540, “Structure-Activity Relationship Studies of Small Molecule Modulators of the Staphylococcal Accessory Gene Regulator” (J Med Chem, 2020).
Where a SMILES comes first, the peptide text is derived from it. Bridges are numbered along the chain shown (N, C = ends). [ ]: non-standard residue; d: D form. The star is where a group is joined. NMeF = CN[C@@H](Cc1ccccc1)C(=O)O; NMeL = CN[C@@H](CC(C)C)C(=O)O; Pent4ynoyl = C#CCCC(=O)*; Dap = NC[C@H](N)C(=O)O; AEEA = NCCOCCOCC(=O)O; Aoc = NCCCCCCCC(=O)O

How the values were obtained:
[1] = Inhibition of AgrC-1 in Staphylococcus aureus AH1677 incubated for 24 hrs by fluorescence assay
[2] = Inhibition of AgrC-4 in Staphylococcus aureus AH1872 incubated for 24 hrs by fluorescence assay
[3] = Inhibition of AgrC-3 in Staphylococcus aureus AH1747 incubated for 24 hrs by fluorescence assay
[4] = Inhibition of AgrC-2 in Staphylococcus aureus AH430 incubated for 24 hrs by fluorescence assay
[5] = Inhibition of AgrC-2 in Staphylococcus aureus RN9372 incubated for 1 hr in presence of AIP agonist by beta-lactamase reporter gene assay
[6] = Inhibition of AgrC-1 in Staphylococcus aureus RN9222 incubated for 1 hr in presence of AIP agonist by beta-lactamase reporter gene assay

Compound	IC50 [1]	IC50 [2]	IC50 [3]	IC50 [4]	IC50 [5]	IC50 [6]
CC(=O)N[C@H]1CNC(=O)[C@H](Cc2ccccc2)NC(=O)[C@H](Cc2ccccc2)NC(=O)CCCCCCCCNC1=O	4740 nM		2610 nM	1340 nM		
CC(=O)N[C@@H]1C/C=C\[C@H](Cc2ccccc2)NC(=O)[C@H](CC(C)C)NC(=O)[C@H](CO)NC(=O)[C@H](CO)NC1=O	> 10000 nM	> 10000 nM	> 10000 nM	> 10000 nM		
CC(=O)N[C@H]1CSC(=O)[C@H](Cc2ccccc2)NC(=O)[C@H](CC(C)C)NC(=O)[C@H](CO)NC(=O)CNC1=O (Ac-CGSLF; thioester 1-C)					1.16 µM	0.189 µM
CC(=O)N[C@H]1CSC(=O)[C@H](Cc2ccccc2)N(C)C(=O)[C@H](CC(C)C)NC(=O)[C@H](CO)NC(=O)[C@H](CO)NC1=O (Ac-CSSL[NMeF]; thioester 1-C)					> 30 µM	> 30 µM
CC(=O)N[C@H]1CSC(=O)[C@H](Cc2ccccc2)NC(=O)[C@H](CC(C)C)N(C)C(=O)[C@H](CO)NC(=O)[C@H](CO)NC1=O (Ac-CSS[NMeL]F; thioester 1-C)					> 30 µM	> 30 µM
CC(=O)N[C@H]1CNC(=O)[C@H](Cc2ccccc2)NC(=O)[C@H](Cc2ccccc2)NC(=O)COCCOCCNC1=O (Ac-[Dap][AEEA]FF; lactam 1-C)	> 10000 nM	> 10000 nM	> 10000 nM	> 10000 nM		
CC(=O)N[C@H]1CNC(=O)[C@H](Cc2ccccc2)NC(=O)[C@H](Cc2ccccc2)NC(=O)CCCCCCCNC1=O (Ac-[Dap][Aoc]FF; lactam 1-C)	3940 nM		573 nM	2200 nM		
CC[C@H](C)[C@H](N)C(=O)N[C@@H](CC(N)=O)C(=O)N[C@H]1CNC(=O)[C@H](CC(C)C)NC(=O)[C@H](CC(C)C)NC(=O)[C@H](Cc2ccccc2)NC(=O)[C@H](CC(=O)O)NC1=O (H-IN[Dap]DFLL; lactam 3-C)	> 1000 nM	299 nM	75.2 nM	> 1000 nM		
C#CCCC(=O)N[C@H](C(=O)N[C@@H](CC(N)=O)C(=O)N[C@H]1CSC(=O)[C@H](CC(C)C)NC(=O)[C@H](CC(C)C)NC(=O)[C@H](Cc2ccccc2)NC(=O)[C@H](C)NC1=O)[C@@H](C)CC (Pent4ynoyl-INCAFLL; thioester 3-C)	1000 nM	> 1000 nM	> 1000 nM	> 1000 nM		

The remaining lines, values ahead:

IC50 [1]	IC50 [2]	IC50 [3]	IC50 [4]	IC50 [5]	IC50 [6]	Compound
4.88 nM	3.87 nM	0.387 nM	6.47 nM			O=C1COCCOCCNC(=O)[C@H](NC(=O)Cc2ccccc2)CSC(=O)[C@H](Cc2cccc(Cl)c2)NC(=O)[C@H](CC2CCCC2)N1
468 nM	3490 nM	125 nM	479 nM			CC(=O)N[C@H]1CSC(=O)[C@H](Cc2ccccc2)NC(=O)[C@H](Cc2ccccc2)NC(=O)CCCCCCCCNC1=O
2.01 nM	4.75 nM	0.0918 nM	17.9 nM			O=C1COCCOCCNC(=O)[C@H](NC(=O)Cc2ccccc2)CSC(=O)[C@H](Cc2cccc(F)c2)NC(=O)[C@H](CC2CCCC2)N1
101 nM	140 nM	9.3 nM	97 nM			CC(=O)N[C@H]1CSC(=O)[C@H](Cc2ccccc2)NC(=O)[C@H](CC(C)C)NC(=O)[C@H](CO)NC(=O)[C@H](CO)NC1=O (Ac-CSSLF; thioester 1-C)
181 nM	5940 nM	332 nM	583 nM			CC(=O)N[C@H]1CSC(=O)[C@H](Cc2ccccc2)NC(=O)[C@H](Cc2ccccc2)NC(=O)COCCOCCNC1=O (Ac-C[AEEA]FF; thioester 1-C)
340 nM	985 nM	34.8 nM	495 nM			CC(=O)N[C@H]1CSC(=O)[C@H](Cc2ccccc2)NC(=O)[C@H](Cc2ccccc2)NC(=O)CCCCCCCNC1=O (Ac-C[Aoc]FF; thioester 1-C)
1.5 nM	0.189 nM	0.216 nM	13.9 nM			CC(C)C[C@@H]1NC(=O)[C@H](CC(C)C)NC(=O)[C@H](Cc2ccccc2)NC(=O)[C@H](C)NC(=O)[C@@H](N)CNC1=O (H-[Dap]AFLL; lactam 1-C)
